Assays:
[1] = tested on: S. pneumoniae D39V; assay: fitness (endpoint OD595 vs no drug) (fraction); higher = more growth
How it was run: (§1)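 Bacterial fitness was scored as optical density at the stationary-phase transition relative to the robust mean of no-drug control wells. Scores are capped at 1. The growth data were OD595 readings every 30 min for 14 h at 37 °C, background-subtracted against the first reading, from 384-well plates inoculated at OD595 0.01 in TSB, LB Lennox or CY.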

[2] = tested on: B. subtilis 168; assay: as above
How it was run: as §1

[3] = tested on: S. pneumoniae D39V; assay: Bliss interaction score (quartile over a dose matrix) (fitness difference); higher = more antagonism (negative = synergy)
How it was run: (§2)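 The Bliss score is observed fitness minus expected fitness, where the expected value is the product of single-drug fitness values inferred from combination data. Fitness is OD595 at entry into stationary phase normalised to the plate's robust no-drug mean and capped at 1. Scores are reported as quartiles spanning technical, biological and donor/recipient replicates.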

[4] = tested on: S. aureus DSM 20231; assay: as above
How it was run: as §2

[5] = tested on: B. subtilis 168; assay: as above
How it was run: as §2

[6] = tested on: S. aureus Newman; assay: as above
How it was run: as §2
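For Bliss interaction score (quartile over a dose matrix) in this document: first quartile when negative (synergy) and third quartile when positive (antagonism).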
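For fitness (endpoint OD595 vs no drug) in this document: OD595 on entry to stationary phase over no-drug wells; at most 1.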

C[C@H]1c2cccc(O)c2C(=O)C2=C(O)[C@]3(O)C(=O)C(C(N)=O)=C(O)[C@@H](N(C)C)[C@@H]3[C@@H](O)[C@@H]21 [Doxycycline] + CCN(CC)CCOC(=O)c1ccc(N)cc1 [Procaine]
fitness, [1], one replicate
Conditions	partner 85.5 µg/mL	partner 171 µg/mL	partner 342 µg/mL
first compound 0.003875 µg/mL	≥ 1	≥ 1	≥ 1
first compound 0.00775 µg/mL	≥ 1	0.971	0.994

fitness
Conditions	partner 85.5 µg/mL	partner 171 µg/mL	partner 342 µg/mL
[1], first compound 0.0155 µg/mL	0.972	0.95	0.955
[1], first compound 0.031 µg/mL	0.862	0.835	0.849
[1], first compound 0.062 µg/mL	0.77	0.753	0.744
[2], first compound 0.02 µg/mL	0.892	0.855	0.844
[2], first compound 0.04 µg/mL	0.742	0.707	0.7
[2], first compound 0.08 µg/mL	–	0.363	–

Conditions	Bliss interaction score
[3]	0.0386
[4]	-0.0922
[5]	-0.0366
[6]	0.0409

C[C@@H]1O[C@@H]1P(=O)(O)O [Fosfomycin] + CCC(C)C1C(=O)NC(=C)C(=O)NC(C(=O)NC(CSCC(C(=O)N1)NC(=O)/C(=C/C)/NC(=O)C(C(C)CC)N)C(=O)NC2C(SCC(NC(=O)CNC(=O)C3CCCN3C2=O)C(=O)NC(CCCCN)C(=O)NC4C(SCC(NC(=O)CNC(=O)C(NC(=O)C(NC(=O)C(NC(=O)CNC4=O)C)CC(C)C)CCSC)C(=O)NC(CC(=O)N)C(=O)NC(CCSC)C(=O)NC(CCCCN)C(=O)NC5C(SCC6C(=O)NC(C(=O)NC(CSC(C(C(=O)N6)NC(=O)C(NC5=O)C)C)C(=O)NC(CO)C(=O)NC(C(C)CC)C(=O)NC(CC7=CN=CN7)C(=O)NC(C(C)C)C(=O)NC(=C)C(=O)NC(CCCCN)C(=O)O)CC8=CN=CN8)C)C)C)CC(C)C [Nisin]
fitness, main component drawn
Conditions	partner 0.4275 µg/mL	partner 0.5 µg/mL	partner 0.855 µg/mL	partner 1 µg/mL	partner 1.6 µg/mL	partner 1.71 µg/mL	partner 2 µg/mL	partner 3.2 µg/mL	partner 6.4 µg/mL
[1], first compound 1.25 µg/mL	≥ 1	–	≥ 1	–	0.0178	0.0788	–	0.0247	0.0308
[1], first compound 2.5 µg/mL	0.942	–	0.998	–	0.0062	0.0945	–	0.0256	0.0213
[1], first compound 5 µg/mL	0.852	–	0.889	–	0.0119	0.111	–	0.0102	0.0062
[2], first compound 1.562 µg/mL	–	0.712	–	0.609	–	–	0.45	–	–
[2], first compound 3.124 µg/mL	–	0.59	–	0.542	–	–	0.368	–	–
[2], first compound 6.248 µg/mL	–	0.463	–	0.397	–	–	0.285	–	–

fitness, [2], one replicate, main component drawn
Conditions	partner 1.25 µg/mL	partner 1.6 µg/mL	partner 2.5 µg/mL	partner 3.2 µg/mL	partner 4 µg/mL	partner 5 µg/mL	partner 6.4 µg/mL	partner 8 µg/mL	partner 16 µg/mL
first compound 1.562 µg/mL	0.687	0.577	0.527	0.0483	0.0272	0.0426	0.0336	0.0224	0.0164
first compound 3.124 µg/mL	0.613	0.469	0.303	0.024	0.0425	0.0431	0.0247	0.0352	0.0164
first compound 6.248 µg/mL	0.513	0.298	0.127	0.0136	0.0038	0.0232	0.0329	0.007	0.0049

main component drawn
Conditions	Bliss interaction score
[3]	-0.0374
[4]	0.0654
[5]	-0.0482
[6]	-0.0541

CO/N=C(\C(=O)N[C@@H]1C(=O)N2C(C(=O)O)=C(COC(C)=O)CS[C@H]12)c1csc(N)n1 [Cefotaxime] + C[C@H]1COc2c(N3CCN(C)CC3)c(F)cc3c(=O)c(C(=O)O)cn1c23 [Levofloxacin]
Conditions	fitness
[1], first compound 0.0018 µg/mL, partner 0.1725 µg/mL	0.986
[1], first compound 0.0018 µg/mL, partner 0.2 µg/mL	0.966
[1], first compound 0.0018 µg/mL, partner 0.345 µg/mL	0.956
[1], first compound 0.0018 µg/mL, partner 0.4 µg/mL	0.925
[1], first compound 0.0018 µg/mL, partner 0.69 µg/mL	0.701
[1], first compound 0.0018 µg/mL, partner 0.8 µg/mL	0.632
[1], first compound 0.0035 µg/mL, partner 0.1725 µg/mL	0.985
[1], first compound 0.0035 µg/mL, partner 0.2 µg/mL	0.943
[1], first compound 0.0035 µg/mL, partner 0.345 µg/mL	0.939
[1], first compound 0.0035 µg/mL, partner 0.4 µg/mL	0.894
[1], first compound 0.0035 µg/mL, partner 0.69 µg/mL	0.656
[1], first compound 0.0035 µg/mL, partner 0.8 µg/mL	0.611
[1], first compound 0.007 µg/mL, partner 0.1725 µg/mL	0.824
[1], first compound 0.007 µg/mL, partner 0.2 µg/mL	0.922
[1], first compound 0.007 µg/mL, partner 0.345 µg/mL	0.731
[1], first compound 0.007 µg/mL, partner 0.4 µg/mL	0.846
[1], first compound 0.007 µg/mL, partner 0.8 µg/mL	0.548
[2], first compound 0.5 µg/mL, partner 0.0312 µg/mL	0.0483
[2], first compound 0.5 µg/mL, partner 0.0625 µg/mL	0.0584
[2], first compound 0.5 µg/mL, partner 0.125 µg/mL	0.0586
[2], first compound 1 µg/mL, partner 0.0312 µg/mL	0.0414
[2], first compound 1 µg/mL, partner 0.0625 µg/mL	0.0443
[2], first compound 1 µg/mL, partner 0.125 µg/mL	0.0448
[2], first compound 2 µg/mL, partner 0.0312 µg/mL	0.0456
[2], first compound 2 µg/mL, partner 0.0625 µg/mL	0.0537
[2], first compound 2 µg/mL, partner 0.125 µg/mL	0.0738

fitness, [2], one replicate
Conditions	first compound 0.00775 µg/mL	first compound 0.0155 µg/mL	first compound 0.031 µg/mL	first compound 0.0625 µg/mL	first compound 0.125 µg/mL	first compound 0.25 µg/mL
partner 0.001 µg/mL	–	–	–	0.491	0.378	0.158
partner 0.002 µg/mL	0.874	0.691	0.57	0.382	0.311	0.158
partner 0.0039 µg/mL	0.834	0.683	0.565	0.418	0.306	0.128
partner 0.0078 µg/mL	0.812	0.659	0.496	–	–	–

Conditions	Bliss interaction score
[3]	0.112
[4]	-0.0398
[5]	0.0631
[6]	0.0336
